For test [1], the target named is T1, P. berghei apicoplast DNA polymerase (Pb-apPOL) (Plasmodium berghei, UniProt A0A509ALK1).
T1 sequence (A0A509ALK1 1182-1809): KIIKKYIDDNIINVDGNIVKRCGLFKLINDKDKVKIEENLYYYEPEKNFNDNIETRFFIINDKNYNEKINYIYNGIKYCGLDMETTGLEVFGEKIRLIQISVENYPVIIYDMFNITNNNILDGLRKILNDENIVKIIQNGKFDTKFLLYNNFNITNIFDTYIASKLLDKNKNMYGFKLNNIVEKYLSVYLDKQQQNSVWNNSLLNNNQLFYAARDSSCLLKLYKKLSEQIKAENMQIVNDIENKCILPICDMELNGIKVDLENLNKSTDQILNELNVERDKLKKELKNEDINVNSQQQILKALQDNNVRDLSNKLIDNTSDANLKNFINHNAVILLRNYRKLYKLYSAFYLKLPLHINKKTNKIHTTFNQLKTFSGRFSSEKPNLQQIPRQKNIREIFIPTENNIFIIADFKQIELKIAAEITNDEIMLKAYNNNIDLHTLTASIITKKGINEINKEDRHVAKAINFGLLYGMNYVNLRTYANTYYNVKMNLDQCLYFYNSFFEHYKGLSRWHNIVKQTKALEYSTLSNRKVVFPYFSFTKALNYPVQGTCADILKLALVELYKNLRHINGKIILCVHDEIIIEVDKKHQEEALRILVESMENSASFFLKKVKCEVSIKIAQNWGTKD
Briefly: In vitro DNA polymerase inhibition assay, Pb-apPOL. In kind it is biochemical. The settings on record: Table 2. As to the method: (§1) Codon-optimized, exonuclease-deficient Pf-apPOL was overexpressed in E. coli BL21 (DE3) and purified as described. The protein was dialysed against two, 1-liter changes of 20 mM Tris-HCl (pH 8.0), 400 mM NaCl, and 20% glycerol. Plasmodium bergei and Babesia bovis apPOLs (Pb-apPOL and Bb-apPOL, respectively) were codon-optimized, expressed, and purified as for Pf-apPOL[15]. Bacteriophage T4 DNA polymerase was purified as described. The DNA oligonucleotides used to make the high-throughput substrate were obtained from Integrated DNA Technologies. Deoxynucleotides were purchased from Strategene. All other materials came from Fisher Scientific.
The HT assay employs a molecular beacon, a stem-loop DNA template with a Cy3 dye and the Black Hole Quencher on the 3′ and 5′ ends of the DNA, respectively. Pf-apPOL concentration is based on a calculated absorptivity of ε280 = 56750 M^−1 cm^−1. Reactions were carried out at 25 °C, using Corning 3575 […] (well-volume, 20 µL). Assays testing for compound inhibition composed of reaction buffer (pH 7.9 in 50 mM potassium acetate, 20 mM Tris-acetate and 10 mM magnesium acetate), Pf-apPOL (20 nM), DNA substrate (20 nM), dNTPs (6 µM), and compound (10 µM in DMSO). The DNA and nucleotide substrates (dNTPs) were at concentrations of 20 nM and 6 µM, respectively, in the assay. Pf-apPOL was incubated in the reaction buffer with dNTPs and the compound of interest (10 µM, in the assay) at 25 °C for 10 min. The DNA substrate was then added and the reaction was allowed to proceed for 90 min at 25 °C.
In the above, Min is the average of fluorescence emission of the negative controls (substrate only), Max the average fluorescence emission from the positive controls (enzyme + substrate), and Test the emission from the assays in the presence of compounds (enzyme + compound + substrates). Dose-response confirmation assays were performed under similar conditions as the primary screen, but monitoring fluorescence at 10, 90, and 180 min. Tested concentrations of compounds were 2.5, 10, 20, 40, and 80 µM. The IC50 of each compound was determined using Equation (2): (2) […] Vmax/(1+ (I/IC50)^n)
We tested the ability of the 102 compounds to kill P. falciparum parasites cultured in human red blood cells. Due to the number of compounds, we used a single inhibitor concentration of 20 µM and performed experiments in triplicate. These single-dose assays identified 9 compounds that inhibited parasite growth by more than 50%. These compounds were then tested in a dose-response format against chloroquine resistant P. falciparum parasites (Dd2) and the resulting data were fit to a sigmoidal growth inhibition curve to determine EC50 values (Figure 5, Table 2). […] Inhibition of Pb-apPOL is a desired feature because it is likely that future in vivo studies will be performed in the mouse model for Malaria. […] The in vitro polymerase assays identified 5 compounds that were potent inhibitors of all three apicoplast polymerases and a single compound that inhibited Pf-apPOL and Bb-apPOL but not Pb-apPOL (Table 2). Finally, to determine if the compounds were killing the parasites solely via apicoplast disruption, the dose-response curves were also performed with 1 mM isopentylpyrophosphate (IPP) in the growth media (Table 2). […] At this time, it is unclear what the non-apicoplast target(s) may be. One intriguing possibility is that these compounds may be targeting both the apicoplast and the mitochondrial DNA polymerases. […]

Test [2] concerns the target P. falciparum apicoplast DNA polymerase (Pf-apPOL) (Plasmodium falciparum, UniProt Q8ILY1). The test can be described thus: Fluorescence-based high-throughput DNA polymerase assay (molecular beacon), primary screen and dose-response. It is filed as biochemical. In short, it runs like this:
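Single-point screening used 10 µM compound with 20 nM polymerase, 20 nM hairpin substrate and 6 µM dNTPs for 90 min at 25 °C. Confirmatory titrations (2.5–80 µM) followed fluorescence at three times, and IC50 was derived from a fit including a cooperativity term n.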

Test [3] deals with Babesia bovis apicoplast DNA polymerase (Bb-apPOL). Briefly: In vitro DNA polymerase inhibition assay, Bb-apPOL. The settings on record: Table 2. It is filed as biochemical. The method, then: as §1
(§2) We tested the ability of the 102 compounds to kill P. falciparum parasites cultured in human red blood cells. Due to the number of compounds, we used a single inhibitor concentration of 20 µM and performed experiments in triplicate. […] These compounds were then tested in a dose-response format against chloroquine resistant P. falciparum parasites (Dd2) and the resulting data were fit to a sigmoidal growth inhibition curve to determine EC50 values (Figure 5, Table 2). […] Finally, to determine if the compounds were killing the parasites solely via apicoplast disruption, the dose-response curves were also performed with 1 mM isopentylpyrophosphate (IPP) in the growth media (Table 2). […] Very little is known regarding mitochondrial DNA replication in P. falciparum; however, signal sequence identification algorithms have predicted that the other bacterial A-family DNA polymerase residing in P. falciparum is targeted to the mitochondria (PF3D7_0625300)[29]. […] We are currently in the process of cloning and expressing this putative mitochondrial DNA polymerase to determine the effect of these compounds on its activity.

Test [4] concerns chloroquine resistant P. falciparum parasites (strain Dd2). The test can be described thus: Parasite growth inhibition assay in human red blood cells (flow cytometry, acridine orange). It is filed as cell-based. The settings on record: Plasmodium falciparum, Erythrocyte. As to the method: The chloroquine resistant P. falciparum parasites (strain Dd2) were cultured in de-identified, IRB-exempt human red blood cells (RBCs) obtained from the American Red Cross and parasite cultures were maintained as described. Parasitaemia (percentage of total RBCs infected) was measured by flow cytometry on an Attune NxT (ThermoFisher) by nucleic-acid staining of cultured RBCs with phosphate-buffered saline (PBS) containing 0.8 µg ml^−1 acridine orange. We began by determining percent growth inhibition at single compound dose (20 µM) for the 102 non-toxic compounds. […] The experiments were initiated with a starting parasitaemia of ∼1% and parasitaemia was measured 72 and 96 h post compound addition. Growth was normalised to parasite cultures with carrier only (DMSO).
as §2

The mark [5] stands for this setting: read-out: IC50 Pf-apPOL, Table 2.
[6] abbreviates: supplemental file 2, sheet IC50 nontoxic compounds, Pf-apPOL.

Like-named read-outs stand apart in the source and are kept apart here.

Sequence of P. falciparum apicoplast DNA polymerase (Pf-apPOL) (Q8ILY1 entry or part of it): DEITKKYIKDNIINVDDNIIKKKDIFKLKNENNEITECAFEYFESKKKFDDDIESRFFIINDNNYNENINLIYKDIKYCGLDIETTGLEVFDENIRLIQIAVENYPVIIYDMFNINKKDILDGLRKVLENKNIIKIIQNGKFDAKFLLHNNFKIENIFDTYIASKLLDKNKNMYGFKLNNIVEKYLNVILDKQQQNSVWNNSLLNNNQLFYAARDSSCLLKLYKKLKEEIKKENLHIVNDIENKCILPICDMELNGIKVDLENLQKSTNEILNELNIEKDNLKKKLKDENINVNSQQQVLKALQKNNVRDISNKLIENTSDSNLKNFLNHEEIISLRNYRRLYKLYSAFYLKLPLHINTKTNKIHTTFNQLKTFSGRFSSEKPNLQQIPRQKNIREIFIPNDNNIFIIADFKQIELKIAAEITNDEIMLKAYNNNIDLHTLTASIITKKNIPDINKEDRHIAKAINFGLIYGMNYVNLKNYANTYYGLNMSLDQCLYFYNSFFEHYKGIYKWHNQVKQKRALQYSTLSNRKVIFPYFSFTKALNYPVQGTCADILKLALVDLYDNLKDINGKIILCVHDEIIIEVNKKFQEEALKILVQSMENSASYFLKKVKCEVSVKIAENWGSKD

The IC50 is the concentration needed to halve the response being measured. `O=[N+]([O-])c1ccc(/C=C/c2ccc3ccccc3n2)o1` [Molecule 21]: the figures for the 50% inhibitory concentration (IC50) in test [1], in test [2] (setting [5]) and in test [2] (setting [6]) were 9.7 ± 1.6 µM, 8 ± 1 µM and 8.41 µM, respectively.
Broadly, the EC50 is the concentration that produces a half-maximal response. For `O=[N+]([O-])/C=C/c1ccc(-c2ccc(Br)cc2)o1` [Molecule 31], the half-inhibitory concentration (IC50) in test [3] turned out to be 15 ± 5 µM; in test [2] (setting [5]), 15 ± 1 µM; in test [2] (setting [6]) it was 15.8 µM. Moreover, the half-maximal effective concentration (EC50) in test [4] (Dd2 parasites in human RBCs, dose-response, no IPP, read-out: EC50) came to 8.9 ± 0.5 µM; in test [4] (Dd2 parasites, 1 mM isopentylpyrophosphate (IPP) in the growth media, read-out: EC50 + IPP), 8.7 ± 0.6 µM.
